# Results reported in patent WO2015077660A1, “Enzyme reactor system enabling enhanced enzymatic digestion, analyte solubility and improved mass spectrometric compatibility” (priority 2013, dated 2014).
# Where a name gives a salt, the structure may show the parent alone.
# Experiments:
# trypsin [1] = assay: Insulin digestion in immobilized enzyme reactor, buffer screening (Table 7); assay type: biochemical, porcine; conditions: IMER; for Digested / Peptide / Undigested: 70°C, 60 s; for digestion efficiency: CaCl2 as high as 500 mM
# porcine trypsin [2] = tested on: T1, porcine trypsin; assay: Insulin digestion by trypsin in solution, buffer screening (Table 9); assay type: biochemical; conditions: for Digested / Peptide / Undigested: 37°C, 18 h; for trypsin digestion: high concentrations, as high as 500 mM
# T1 construct: purchased
# trypsin [3] = assay: Human IgG digestion in response to calcium concentration (Table 11); assay type: biochemical, porcine; conditions: CaCl2 above 1 mM
# BSA = assay: Screen of additives for prevention of aggregation (Table 5); assay type: physicochemical, bovine; conditions: 12.5 mg/mL BSA, 70°C, four columns in printed order, heads missing
# [4] = Plasma digestion with buffer/additive combinations, aggregation; assay type: physicochemical, beagle; conditions: 100mM CaCl2, 90 minutes
# [5] = Aggregation of BSA in IMER, ammonium acetate, 5mM CaCl2, 5% glycerol (Table 34); assay type: physicochemical; conditions: 5% and 10% (Tables 34 and 35), 50mM ammonium acetate, 5mM CaCl2, 70°C
# [6] = Aggregate formation on digestion at high protein loads; assay type: physicochemical, monkey; conditions: 10% final concentration with 500 mM CaCl2
# [7] = Aggregation of BSA in IMER, ammonium acetate, 5mM CaCl2, 0.1% octylglucoside (Table 33); assay type: physicochemical; conditions: 0.1% in 50mM ammonium acetate, 5mM CaCl2, 70°C
# porcine trypsin [8] = tested on: T1, porcine trypsin; assay: Comparing digestion buffers, solution digestion of insulin; assay type: biochemical; conditions: 37°C, 18 hours, versus tris buffer containing calcium chloride
# [9] = additive concentration not given
smiles,measurement,setting,value
"[Ca+2].[Cl-].[Cl-] [CaCl2, calcium chloride]",Digested,trypsin [1]; 0.05M,2725600
same,Peptide,trypsin [1]; 0.05M,1172085
same,Undigested,trypsin [1]; 0.05M,802494
same,Digested,trypsin [1]; 0.1M,2844924
same,Peptide,trypsin [1]; 0.1M,1221898
same,Undigested,trypsin [1]; 0.1M,609138
same,Digested,trypsin [1]; 0.25M,2950068
same,Peptide,trypsin [1]; 0.25M,1264212
same,Undigested,trypsin [1]; 0.25M,571246
same,Digested,trypsin [1]; 0.5M,3031625
same,Peptide,trypsin [1]; 0.5M,1290650
same,Undigested,trypsin [1]; 0.5M,234332
same,Digested,trypsin [1]; 1M,3066738
same,Peptide,trypsin [1]; 1M,1263872
same,Undigested,trypsin [1]; 1M,16129
same,digestion efficiency,trypsin [1],An increase in digestion was observed
same,digestion efficiency,trypsin [1]; listed as calcium chloride,digestion efficiency increased dramatically
same,Digested,porcine trypsin [2]; 0.05M,2007752
same,Peptide,porcine trypsin [2]; 0.05M,860714
same,Undigested,porcine trypsin [2]; 0.05M,2746822
same,Digested,porcine trypsin [2]; 0.1M,2377399
same,Peptide,porcine trypsin [2]; 0.1M,1074482
same,Undigested,porcine trypsin [2]; 0.1M,2139571
same,Digested,porcine trypsin [2]; 0.25M,3241428
same,Peptide,porcine trypsin [2]; 0.25M,1430859
same,Undigested,porcine trypsin [2]; 0.25M,2885626
same,Digested,porcine trypsin [2]; 0.5M,3340960
same,Peptide,porcine trypsin [2]; 0.5M,1474912
same,Undigested,porcine trypsin [2]; 0.5M,856015
same,Digested,porcine trypsin [2]; 1M,3203158
same,Peptide,porcine trypsin [2]; 1M,1344334
same,Undigested,porcine trypsin [2]; 1M,949033
same,trypsin digestion,porcine trypsin [2],An increase in digestion was observed
same,trypsin digestion,porcine trypsin [2]; listed as calcium chloride,dramatically improve trypsin digestion
same,enzyme efficiency,trypsin [3],increase enzyme efficiency
"CN(C)C=O [DMF, dimet ylformamide]",aggregation,BSA; 20%,Y and Υ
C[C@H](CCC(=O)O)[C@H]1CC[C@H]2[C@@H]3CC[C@@H]4C[C@H](O)CC[C@]4(C)[C@H]3C[C@H](O)[C@]12C [Deoxycholate],aggregation,BSA; [9],Υ
NC=O [Formamide],aggregation,[4]; 10% in 50mM TBS,significant aggregation
same,Digested,trypsin [1]; 5%,1424720
same,Peptide,trypsin [1]; 5%,580956
same,Undigested,trypsin [1]; 5%,3061491
same,Digested,trypsin [1]; 10%,745680
same,Peptide,trypsin [1]; 10%,305599
same,Undigested,trypsin [1]; 10%,3827192
same,Digested,trypsin [1]; 15%,375288
same,Peptide,trypsin [1]; 15%,155245
same,Undigested,trypsin [1]; 15%,4129486
same,Digested,trypsin [1]; 20%,200621
same,Peptide,trypsin [1]; 20%,82549
same,Undigested,trypsin [1]; 20%,4430620
same,Digested,porcine trypsin [2]; 5%,1126069
same,Peptide,porcine trypsin [2]; 5%,500704
same,Undigested,porcine trypsin [2]; 5%,3871868
same,Digested,porcine trypsin [2]; 10%,1509456
same,Peptide,porcine trypsin [2]; 10%,693291
same,Undigested,porcine trypsin [2]; 10%,4196754
same,Digested,porcine trypsin [2]; 15%,973971
same,Peptide,porcine trypsin [2]; 15%,421130
same,Undigested,porcine trypsin [2]; 15%,4281392
same,Digested,porcine trypsin [2]; 20%,470938
same,Peptide,porcine trypsin [2]; 20%,194156
same,Undigested,porcine trypsin [2]; 20%,4620417
"N=C(N)N [Gdn HC1, guanidine hydrochloride]",Digested,trypsin [1]; 0.5M,723258
same,Peptide,trypsin [1]; 0.5M,309390
same,Undigested,trypsin [1]; 0.5M,4114993
same,Digested,trypsin [1]; 1M,423606
same,Peptide,trypsin [1]; 1M,179523
same,Undigested,trypsin [1]; 1M,4328875
same,Digested,trypsin [1]; 2M,136773
same,Peptide,trypsin [1]; 2M,56700
same,Undigested,trypsin [1]; 2M,4244827
same,Digested,trypsin [1]; 4M,40578
same,Peptide,trypsin [1]; 4M,15000
same,Undigested,trypsin [1]; 4M,4562051
same,Digested,trypsin [1]; 6M,9402
same,Peptide,trypsin [1]; 6M,2447
same,Undigested,trypsin [1]; 6M,4396495
same,Digested,porcine trypsin [2]; 0.5M,216251
same,Peptide,porcine trypsin [2]; 0.5M,101735
same,Undigested,porcine trypsin [2]; 0.5M,5487176
same,Digested,porcine trypsin [2]; 1M,215746
same,Peptide,porcine trypsin [2]; 1M,94828
same,Undigested,porcine trypsin [2]; 1M,5229914
same,Digested,porcine trypsin [2]; 2M,184318
same,Peptide,porcine trypsin [2]; 2M,67546
same,Undigested,porcine trypsin [2]; 2M,5455780
same,Digested,porcine trypsin [2]; 4M,30954
same,Peptide,porcine trypsin [2]; 4M,11014
same,Undigested,porcine trypsin [2]; 4M,6195166
same,Digested,porcine trypsin [2]; 6M,5871
same,Peptide,porcine trypsin [2]; 6M,1647
same,Undigested,porcine trypsin [2]; 6M,5301367
same,aggregation,"BSA; 0.5M, listed as Guanidine HC1, hydrochloride",N and Ν
OCC(O)CO [Glycerol],sample solubility and aggregation,[5],enhances sample solubility and prevents aggregation
same,aggregation,[4]; 10% in 50mM TBS,no aggregation
same,Digested,trypsin [1]; 5%,2051870
same,Peptide,trypsin [1]; 5%,828171
same,Undigested,trypsin [1]; 5%,2217803
same,Digested,trypsin [1]; 10%,1779261
same,Peptide,trypsin [1]; 10%,697488
same,Undigested,trypsin [1]; 10%,2432362
same,Digested,trypsin [1]; 20%,1167862
same,Peptide,trypsin [1]; 20%,445736
same,Undigested,trypsin [1]; 20%,3174668
same,Digested,porcine trypsin [2]; 5%,1007768
same,Peptide,porcine trypsin [2]; 5%,432166
same,Undigested,porcine trypsin [2]; 5%,3685707
same,Digested,porcine trypsin [2]; 10%,833521
same,Peptide,porcine trypsin [2]; 10%,353626
same,Undigested,porcine trypsin [2]; 10%,4404492
same,Digested,porcine trypsin [2]; 20%,654553
same,Peptide,porcine trypsin [2]; 20%,275165
same,Undigested,porcine trypsin [2]; 20%,5163829
same,digestion efficiency,porcine trypsin [2]; lower to moderate concentrations,"does not significantly, negatively impact digestion efficiency"
same,formation of aggregates,[6],prevented the formation of aggregates
same,aggregation,BSA; 5%,Ν
same,aggregation,BSA; 10%,Ν
"CCCCCCCCO[C@@H]1O[C@H](CO)[C@@H](O)[C@H](O)[C@H]1O [OGS, octylglucoside]",aggregation,[4]; 0.1% in 50mM TBS,significant aggregation
same,Digested,trypsin [1]; 0.05%,2394275
same,Peptide,trypsin [1]; 0.05%,958775
same,Undigested,trypsin [1]; 0.05%,1730676
same,Digested,trypsin [1]; 0.1%,2255277
same,Peptide,trypsin [1]; 0.1%,891922
same,Undigested,trypsin [1]; 0.1%,2114234
same,Digested,trypsin [1]; 0.15%,2430665
same,Peptide,trypsin [1]; 0.15%,942341
same,Undigested,trypsin [1]; 0.15%,2160281
same,Digested,trypsin [1]; 0.2%,2255277
same,Peptide,trypsin [1]; 0.2%,891922
same,Undigested,trypsin [1]; 0.2%,2114234
same,Digested,porcine trypsin [2]; 0.05%,1424601
same,Peptide,porcine trypsin [2]; 0.05%,581489
same,Undigested,porcine trypsin [2]; 0.05%,3798587
same,Digested,porcine trypsin [2]; 0.1%,1616907
same,Peptide,porcine trypsin [2]; 0.1%,675287
same,Undigested,porcine trypsin [2]; 0.1%,4128179
same,Digested,porcine trypsin [2]; 0.15%,1538290
same,Peptide,porcine trypsin [2]; 0.15%,636117
same,Undigested,porcine trypsin [2]; 0.15%,3751677
same,Digested,porcine trypsin [2]; 0.2%,1574071
same,Peptide,porcine trypsin [2]; 0.2%,619589
same,Undigested,porcine trypsin [2]; 0.2%,3732438
same,sample solubility and aggregation,[7],enhances sample solubility and prevents aggregation
same,aggregation,BSA; [9],Ν
NC(N)=O [Urea],Digested,trypsin [1]; 0.5M,1816572
same,Peptide,trypsin [1]; 0.5M,715848
same,Undigested,trypsin [1]; 0.5M,2285541
same,Digested,trypsin [1]; 1M,1448998
same,Peptide,trypsin [1]; 1M,555954
same,Undigested,trypsin [1]; 1M,2812910
same,Digested,trypsin [1]; 2M,905391
same,Peptide,trypsin [1]; 2M,349854
same,Undigested,trypsin [1]; 2M,3812799
same,Digested,trypsin [1]; 4M,285873
same,Peptide,trypsin [1]; 4M,104200
same,Undigested,trypsin [1]; 4M,4609299
same,Digested,trypsin [1]; 6M,139668
same,Peptide,trypsin [1]; 6M,49088
same,Undigested,trypsin [1]; 6M,4675789
same,Digested,trypsin [1]; 8M,43865
same,Peptide,trypsin [1]; 8M,13979
same,Undigested,trypsin [1]; 8M,4151508
same,Digested,porcine trypsin [2]; 0.5M,1220686
same,Peptide,porcine trypsin [2]; 0.5M,538728
same,Undigested,porcine trypsin [2]; 0.5M,3763696
same,Digested,porcine trypsin [2]; 1M,1145096
same,Peptide,porcine trypsin [2]; 1M,511139
same,Undigested,porcine trypsin [2]; 1M,2972094
same,Digested,porcine trypsin [2]; 2M,1106227
same,Peptide,porcine trypsin [2]; 2M,490181
same,Undigested,porcine trypsin [2]; 2M,3034093
same,Digested,porcine trypsin [2]; 4M,860501
same,Peptide,porcine trypsin [2]; 4M,389932
same,Undigested,porcine trypsin [2]; 4M,2877527
same,Digested,porcine trypsin [2]; 6M,529552
same,Peptide,porcine trypsin [2]; 6M,301136
same,Undigested,porcine trypsin [2]; 6M,3250299
same,Digested,porcine trypsin [2]; 8M,156492
same,Peptide,porcine trypsin [2]; 8M,69027
same,Undigested,porcine trypsin [2]; 8M,2197015
N.O=C(O)O [ammonium bicarbonate],enzyme activity,porcine trypsin [8],significantly higher
